Legend:
Assay type in all cases: in vivo
MDA, 4-HNE = assay: Striatal lipid peroxidation (MDA, 4-HNE) after MA; conditions: MDA and 4-HNE; striatum, 3 days after final MA; p.o.; AME 50, EBS 20, rottlerin 20 mg/kg; GPx-1 (+/+) and (−/−) mice
Description: (§1) The mice received four times of MA (8 mg/kg, ip) or saline as a 2 hr-time interval. Chemicals (AME, EBS, and PKC inhibitors) were administrated for 5 consecutive days (twice daily), and were given 2 times at 4 hr and 30 min before the first MA injection as shown in the experimental schedule. Animals were sacrificed at 4 hrs and 3 days after the final MA administration.
The amount of lipid peroxidation was assessed by measuring the accumulation of thiobarbituric acid-reactive substance in homogenates of striatal tissue and is expressed as malondialdehyde (MDA) content (Kim et al., 1999, 2000b, 2002). In brief, 0.1 ml of the homogenate (or standard solutions prepared daily from 1,1,3,3-tetra-methoxypropane) and 0.75 ml of the working solution (thiobarbituric acid 0.37% and perchloric acid 6.4%, 2:1 v/v) were mixed and heated in a water bath to 95° C. for 1 h. After cooling (10 min in ice water bath), the flocculent precipitate was removed by centrifugation at 3200×g for 10 min. The supernatant was neutralized and filtered prior to injection on an ODS 5 μm column. Mobile phase consisted of 50 mM PBS (pH 6.0): methanol (58:42, v/v). Isocratic separation was performed with 1.0 ml/min flow rate and detection at 532 nm using a UV/VIS HPLC-Detector (Model 486, Waters Associates, Milford, Mass., USA). MDA values were expressed as nmole/mg protein.
4-hydroxy-2-nonenal (4HNE) is major product of the lipid peroxidation process (Benedetti et al., 1980). Determining of 4HNE was performed as slot blot analysis (Zhang et al., 2000). Briefly, following transfer, the PVDF membranes were preincubated with 5% non-fat milk and incubated overnight at 4° C. with anti-4HNE (1:2000, Calbiochem, San Diego, Calif., USA). After incubation with primary antibody, membranes were incubated with a HRP-conjugated secondary antibody. Subsequent visualization was performed using enhanced chemiluminescence system (ECL Plus®, GE healthcare).

interleukin (IL)-6 = assay: IL-6 expression after MA (western blot); conditions: p.o.; AME 50, EBS 20, rottlerin 20 mg/kg; MA 8 mg/kg i.p. x4; GPx-1 (+/+) and (−/−) mice
Description: as §1
(§2) The western blot assays was performed as described previously (Kim et al., 2003). Tissues were homogenized in lysis buffer, containing 200 mM Tris HCl (pH 6.8), 1% SDS, 5 mM EGTA (ethylene glycol tetraacetic acid), 5 mM EDTA (ethylenediaminetetraacetic acid), 10% glycerol, 1× phosphatase inhibitor cocktail I, 1× protease inhibitor cocktail. Lysate was centrifuged at 12,000×g for 30 min and supernatant fraction was used for Western blot analysis. Proteins (20-50 ug/lane) were separated by 6%, 8%, 10% or 15% sodium dodecyl sulfate-polyacrylamide gel electrophoresis and transferred onto the PVDF membranes. Following transfer, the membranes were preincubated with 5% non-fat milk and incubated overnight at 4° C. with primary antibody against β-actin (1:50000, Sigma, St. Louis, Mo., USA), TH (1:5000, Chemicon), TH phosphor-Ser 19 (1:1000, Chemicon,), TH phosphor-Ser 31 (1:500, Chemicon), TH phosphor-Ser 40 (1:500, Chemicon), F4/80 (1:500, Serotec), GPx1 (1:2500, AbFrontier), PKC (1:5000, Santa Cruz biotechnology, Santa Cruz, Calif., USA), p53 (1:5000, Cell signaling, Beverly, Mass., USA), MDM2 (1:1000, BD Pharmingen, San Jose, Calif., USA), MDM2 phospho-Ser 166 (1:1000, cell signaling), BDNF (1:500, Chemicon), GDNF (1:250, Santa Cruz), COX-2 (1:2000, Cayman, Ann Arbor, MC, USA), IL-6 (1:2000, Abcam, Cambridge, Mass., USA), TNF-a (1:1000, R&D Systems, Mckinley place NE, NM, USA), IFN-γ (1:500, Chemicon) or Iba-1 (1:500, Wako, Osaka, Japan). And then, membranes were incubated with HRP-conjugated secondary anti-rabbit IgG (1:1000, GE healthcare, Piscataway, N.J., USA), anti-mouse IgG (1:1000, Sigma) or anti-goat IgG (1:1000, Sigma) for 2 h. […]

[1] = system: F4/80 (a marker of microgliosis); assay: F4/80 expression after MA (western blot); conditions: p.o.; AME 50, EBS 20, rottlerin 20 mg/kg; MA 8 mg/kg i.p. x4; GPx-1 (+/+) and (−/−) mice
Description: as §1, §2

[2] = system: tumor necrosis factor (TNF)-α; assay: TNF-α expression after MA (western blot); conditions: p.o.; AME 50, EBS 20, rottlerin 20 mg/kg; MA 8 mg/kg i.p. x4; GPx-1 (+/+) and (−/−) mice
Description: as §1, §2

[3] = system: reactive oxygen species (ROS); assay: Striatal ROS formation after MA; conditions: striatum, 3 days after final MA; p.o.; AME 50, EBS 20, rottlerin 20 mg/kg; GPx-1 (+/+) and (−/−) mice
Description: as §1
The extent of reactive oxygen species (ROS) formation in the striatum was assessed by measuring the convertion from 2′,7′-dichlorofluorescin diacetate (DCFH-DA) to dichlorofluoresin (DCF) as describe by Bourre et al., (2002) with slight modification. Brain homogenates were added to a tube containing 2 ml of PBS with 10 nmole of DCFH-DA, dissolved in methanol. Mixture were incubated at 37° C. for 3 hours and then measured the absorbance at 480 nm excitation and 525 nm emission. DCF is used as a standard.

[4] = system: glial cell line-derived neurotrophic factor (GDNF); assay: Striatal GDNF expression after MA (western blot); conditions: p.o.; AME 50, EBS 20, rottlerin 20 mg/kg; MA 8 mg/kg i.p. x4; GPx-1 (+/+) and (−/−) mice
Description: as §1, §2

[5] = system: GPx-1 (+/+)- and GPx-1 (−/−)-mice; assay: Rota-rod test after MA; conditions: MA 8 mg/kg i.p. x4, GPx-1 (+/+) and (−/−) mice
Description: as §1
The apparatus (Ugo Basile model 7650, Comerio, VA, Italy) consisted of a base platform and a rotating rod with a nonslippery surface. The rod was placed at a height of 15 cm from the base. The rod, 30 cm in length, was divided into 5 equal sections by 6 opaque disks (so that the subjects cannot be distracted by one another) To assess motor performance, the mice first trained on the apparatus 2 minutes at a constant rate of 4 r.p.m. per 30 s prior to the test. The test was performed 30 minutes after training and an accelerating paradigm was applied, starting from a rate of 4 r.p.m. to a maximum speed of 40 r.p.m., then the rotation speed was kept constant at 40 r.p.m. for a maximum of 300 s. The duration for which the animal could maintain balance on the rotating drum was measured as the rotarod latency, with a maximal cut-off time of 300 s.

[6] = p.o., AME 25 or 50, EBS 10 or 20, rottlerin 10 or 20 mg/kg

Row | Structure (SMILES) | effect on MA-induced increase in lipid peroxidation (MDA, 4-HNE) | effect on MA-induced increase in IL-6 expression (interleukin (IL)-6) | effect on MA-induced increase in F4/80 expression [1] | effect on MA-induced increase in TNF-α expression [2] | effect on MA-induced increase in ROS [3] | effect on MA-induced reduction in GDNF expression [4] | effect on MA-induced impairment in rota-rod performance [5, 6] | effect on MA-induced impairment in rota-rod performance ([5]; PKC inhibitors intra-striatal (chelerythrine 0.2 ug/head, rottlerin 3.0 ug/head significant))
1 | O=c1c2ccccc2[se]n1-c1ccccc1 [EBS, 2-phenyl-1,2-benzisoselenazol-3(2H)-one] | significantly attenuated | significantly and consistently attenuating effects | significantly and consistently attenuating effects | significantly and consistently attenuating effects | significantly attenuated | significantly attenuated these reductions | inhibited these effects in a dose-dependent manner | –
2 | CC(=O)c1c(O)c(C)c(O)c(Cc2c(O)c3c(c(C(=O)/C=C/c4ccccc4)c2O)OC(C)(C)C=C3)c1O [rottlerin] | significantly attenuated | significantly and consistently attenuating effects | significantly and consistently attenuating effects | significantly and consistently attenuating effects | significantly attenuated | significantly attenuated these reductions | inhibited these effects in a dose-dependent manner | attenuated the MA-behavioral impairments in a dose-dependent manner
3 | CC(=O)Oc1ccccc1C(=O)Oc1c(C)occc1=O [AME, 3-(2-methyl-4-pyronyl)-2-acetyloxybenzoate] | significantly attenuated | significantly and consistently attenuating effects | significantly and consistently attenuating effects | significantly and consistently attenuating effects | significantly attenuated | significantly attenuated these reductions | inhibited these effects in a dose-dependent manner | –
